Earlier results as cited in patent US8591958B2, “Concentrated hydrogen peroxide disinfecting solutions” (priority 2008, dated 2013).
Where two headings read alike, the source gives them in different places.

Test system: Staphylococcus aureus

## OO [hydrogen peroxide]
0.1% w/w aqueous solution
  time required to disinfect surfaces contaminated with Staphylococcus aureus: about 60 minutes
25.8% w/w aqueous solution, same test conditions
  time required to disinfect surfaces contaminated with Staphylococcus aureus: about 20 seconds
